Assay: Plasma pharmacokinetics, non-compartmental analysis
Format: in vivo, human
Details: for Vd/F / half-life / Tmax / AUC(0-t) / AUC / Cmax: human, plasma, oral; for Vd/F: Vss/F, Amean (range); for AUC(0-t): AUC0–12, Gmean (range)
[1] = 40 mg, single dose, 40 mg solution (n=6)
[2] = 40 mg, single dose, 40 mg tablet (n=7)
[3] = 60 mg, single dose, 60 mg tablet (n=7)
[4] = 90 mg, single dose, 90 mg tablet (n=11)
[5] = 120 mg, single dose, 120 mg tablet (n=10)

COc1ccc(-c2ccc3c(N4CCOC[C@@H]4C)nc(N4CCOC[C@@H]4C)nc3n2)cc1CO [AZD8055]
Vd/F (20 mg, single dose, 20 mg solution (n=3)): 1050 L
half-life (20 mg, t1/2, Amean (range), single dose, 20 mg solution (n=3)): 1.86 h
Tmax (20 mg, tmax, Median (range), single dose, 20 mg solution (n=3)): 0.5 h
AUC(0-t) [1]: 99.4 ng·h/mL
AUC(0-t) [2]: 124 ng·h/mL
AUC (40 mg, AUC, Gmean (range), single dose, 40 mg solution (n=6)): 101 ng·h/mL
AUC (40 mg, AUC, Gmean (range), single dose, 40 mg tablet (n=7)): 127 ng·h/mL
AUC (40 mg, AUCss, Gmean (n) (range), following BID dosing, 40 mg BID solution): 111 ng·h/mL
AUC (40 mg, AUCss, Gmean (n) (range), following BID dosing, 40 mg BID tablet): 101 ng·h/mL
Cmax (40 mg, Cmax ss, Gmean (n) (range), following BID dosing, 40 mg BID solution): 61.9 ng/mL
Cmax (40 mg, Cmax ss, Gmean (n) (range), following BID dosing, 40 mg BID tablet): 46.1 ng/mL
Cmax (40 mg, Cmax, Gmean (range), single dose, 40 mg solution (n=6)): 70.9 ng/mL
Cmax (40 mg, Cmax, Gmean (range), single dose, 40 mg tablet (n=7)): 72.3 ng/mL
Vd/F [1]: 840 L
Vd/F [2]: 762 L
half-life (40 mg, t1/2, Amean (range), single dose, 40 mg solution (n=6)): 2.65 h
half-life (40 mg, t1/2, Amean (range), single dose, 40 mg tablet (n=7)): 2.28 h
half-life (40 mg, t1/2 ss, Amean (n) (range), following BID dosing, 40 mg BID solution): 2.13 h
half-life (40 mg, t1/2 ss, Amean (n) (range), following BID dosing, 40 mg BID tablet): 3.04 h
Tmax (40 mg, tmax ss, Median (n) (range), following BID dosing, 40 mg BID solution): 0.25 h
Tmax (40 mg, tmax ss, Median (n) (range), following BID dosing, 40 mg BID tablet): 1 h
Tmax (40 mg, tmax, Median (range), single dose, 40 mg solution (n=6)): 0.37 h
Tmax (40 mg, tmax, Median (range), single dose, 40 mg tablet (n=7)): 1 h
AUC(0-t) [3]: 131 ng·h/mL
AUC (60 mg, AUC, Gmean (range), single dose, 60 mg tablet (n=7)): 136 ng·h/mL
AUC (60 mg, AUCss, Gmean (n) (range), following BID dosing, 60 mg BID tablet): 178 ng·h/mL
Cmax (60 mg, Cmax ss, Gmean (n) (range), following BID dosing, 60 mg BID tablet): 82.8 ng/mL
Cmax (60 mg, Cmax, Gmean (range), single dose, 60 mg tablet (n=7)): 57.1 ng/mL
Vd/F [3]: 1770 L
half-life (60 mg, t1/2, Amean (range), single dose, 60 mg tablet (n=7)): 2.37 h
half-life (60 mg, t1/2 ss, Amean (n) (range), following BID dosing, 60 mg BID tablet): 2.81 h
Tmax (60 mg, tmax ss, Median (n) (range), following BID dosing, 60 mg BID tablet): 1 h
Tmax (60 mg, tmax, Median (range), single dose, 60 mg tablet (n=7)): 0.5 h
Cmax (90 mg): 70.1 ng/mL
half-life (90 mg): 2.36 h
AUC(0-t) [4]: 130 ng·h/mL
AUC (90 mg, AUC, Gmean (range), single dose, 90 mg tablet (n=11)): 134 ng·h/mL
AUC (90 mg, AUCss, Gmean (n) (range), following BID dosing, 90 mg BID tablet): 122 ng·h/mL
Cmax (90 mg, Cmax ss, Gmean (n) (range), following BID dosing, 90 mg BID tablet): 70 ng/mL
Vd/F [4]: 2450 L
half-life (90 mg, t1/2 ss, Amean (n) (range), following BID dosing, 90 mg BID tablet): 2.63 h
Tmax (90 mg, tmax ss, Median (n) (range), following BID dosing, 90 mg BID tablet): 0.5 h
Tmax (90 mg, tmax, Median (range), single dose, 90 mg tablet (n=11), MTD): 0.5 h
AUC(0-t) [5]: 280 ng·h/mL
AUC (120 mg, AUC, Gmean (range), single dose, 120 mg tablet (n=10)): 294 ng·h/mL
AUC (120 mg, AUCss, Gmean (n) (range), following BID dosing, 120 mg BID tablet): 501 ng·h/mL
Cmax (120 mg, Cmax ss, Gmean (n) (range), following BID dosing, 120 mg BID tablet): 355 ng/mL
Cmax (120 mg, Cmax, Gmean (range), single dose, 120 mg tablet (n=10)): 177 ng/mL
Vd/F [5]: 1370 L
half-life (120 mg, t1/2, Amean (range), single dose, 120 mg tablet (n=10)): 3.14 h
half-life (120 mg, t1/2 ss, Amean (n) (range), following BID dosing, 120 mg BID tablet): 2.45 h
Tmax (120 mg, tmax ss, Median (n) (range), following BID dosing, 120 mg BID tablet): 0.5 h
Tmax (120 mg, tmax, Median (range), single dose, 120 mg tablet (n=10)): 0.5 h
half-life (mean t1/2, single and multiple doses across all cohorts): 1.7 to 3.1 h
Tmax (median tmax, single and multiple doses across all cohorts): ~0.5 h
Oral bioavailability (oral dosing in patients): orally bioavailable
tmax, Median (range) (single dose, 90 mg tablet (n=11), MTD): 1.00 (0.25–4) h
Dose proportionality of exposure (single dosing, all cohorts): proportional increases in exposure with increasing dose

Reference: publication PMC3461162 (British Journal of Cancer, 2012)
